Experiments:
[1] = molecular target: T1, Cyclin-G-associated kinase (Homo sapiens, UniProt O14976); test: Binding affinity to wild type DNA-tagged human GAK (G13 to Y338 residues) expressed in bacterial expression system by quantitative PCR based KINOMEscan assay
T1 sequence (O14976 whole entry): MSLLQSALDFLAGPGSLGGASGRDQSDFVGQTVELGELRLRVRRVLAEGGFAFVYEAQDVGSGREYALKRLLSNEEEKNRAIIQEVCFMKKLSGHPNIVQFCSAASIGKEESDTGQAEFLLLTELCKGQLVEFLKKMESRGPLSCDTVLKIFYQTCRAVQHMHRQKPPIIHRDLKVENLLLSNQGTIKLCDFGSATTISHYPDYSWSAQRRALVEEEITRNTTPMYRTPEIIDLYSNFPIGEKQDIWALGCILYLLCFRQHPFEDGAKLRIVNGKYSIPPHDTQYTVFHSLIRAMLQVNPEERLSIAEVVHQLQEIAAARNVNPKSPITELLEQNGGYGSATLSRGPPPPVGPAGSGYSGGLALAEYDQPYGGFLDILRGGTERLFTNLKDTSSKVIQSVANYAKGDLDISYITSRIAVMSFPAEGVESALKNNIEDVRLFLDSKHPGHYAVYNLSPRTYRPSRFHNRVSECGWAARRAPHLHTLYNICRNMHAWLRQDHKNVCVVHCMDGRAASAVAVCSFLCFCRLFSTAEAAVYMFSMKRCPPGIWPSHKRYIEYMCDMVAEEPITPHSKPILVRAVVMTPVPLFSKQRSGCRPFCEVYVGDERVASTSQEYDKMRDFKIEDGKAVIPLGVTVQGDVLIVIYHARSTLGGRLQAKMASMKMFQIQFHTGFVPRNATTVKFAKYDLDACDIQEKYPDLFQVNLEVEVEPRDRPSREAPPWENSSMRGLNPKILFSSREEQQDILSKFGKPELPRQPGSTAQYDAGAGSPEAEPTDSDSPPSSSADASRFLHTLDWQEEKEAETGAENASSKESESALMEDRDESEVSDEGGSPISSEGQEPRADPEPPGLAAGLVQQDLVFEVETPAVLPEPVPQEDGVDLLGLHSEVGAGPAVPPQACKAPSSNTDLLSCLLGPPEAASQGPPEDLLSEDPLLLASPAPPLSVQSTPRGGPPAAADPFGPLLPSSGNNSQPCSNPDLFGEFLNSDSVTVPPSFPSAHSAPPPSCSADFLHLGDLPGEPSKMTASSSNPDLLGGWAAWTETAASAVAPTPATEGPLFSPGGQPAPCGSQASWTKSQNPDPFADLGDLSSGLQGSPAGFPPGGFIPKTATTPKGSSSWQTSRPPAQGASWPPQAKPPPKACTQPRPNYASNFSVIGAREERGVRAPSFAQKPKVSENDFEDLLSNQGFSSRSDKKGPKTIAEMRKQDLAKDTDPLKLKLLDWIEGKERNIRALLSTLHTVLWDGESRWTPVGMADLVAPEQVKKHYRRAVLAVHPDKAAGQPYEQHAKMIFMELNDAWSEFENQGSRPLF

dengue virus type 2 = test: Antiviral activity against DENV2 New Guinea C infected in human HuH7 cells after 48 hrs by luciferase reporter gene assay; assay type: functional, organism-based; settings: Thailand/NGS-C/1944, Huh-7, 48 h
Huh-7 = test: Cytotoxicity against human HuH7 cells assessed as reduction in cell viability at 0.01 to 10 uM after 48 hrs by Cell-Titer Glo assay; assay type: cell-based; settings: huh-7, 48 h

Row | Kd [1] [nM] | EC50 (dengue virus type 2) [nM] | SMILES | Activity (Huh-7)
1 | > 30000 | – | COc1ccc(-c2cnc3c(-c4ccc(C#N)cc4)snc3c2)cc1OC | –
2 | > 30000 | – | COC(=O)c1ccc(-c2snc3cc(-c4ccc(OC)c(OC)c4)cnc23)cc1 | –
3 | – | 3350 | COc1ccc(-c2cnc3c(-c4ccc(OC)c(OC)c4)snc3c2)cc1OC | Non-Toxic
4 | 860 | – | COc1ccc(-c2cnc3c(-c4ccsc4)snc3c2)cc1OC | –
5 | 520 | – | COc1ccc(-c2cnc3c(-c4ccncc4)snc3c2)cc1OC | –
6 | > 30000 | – | COc1ccc(-c2cnc3c(C#Cc4ccccc4)snc3c2)cc1OC | –

Row | SMILES | Kd [1] [nM] | EC50 (dengue virus type 2) [nM] | Activity (Huh-7)
7 | COc1ccc(-c2cnc3c(-c4ccccc4)snc3c2)cc1OC | 770 | – | –

Reference: ChEMBL document CHEMBL4330079, “Cyclin G-associated kinase (GAK) affinity and antiviral activity studies of a series of 3-C-substituted isothiazolo[4,3-b]pyridines” (Eur J Med Chem, 2019)
